Molecular target: T1, SAMHD1 (Homo sapiens, UniProt Q9Y3Z3)
T1 construct: The final concentrations were 100 nM SAMHD1(115–626), 10 nM Ppx1; strep-tag; made in house
Assay: SAMHD1 triphosphohydrolase continuous coupled-enzyme assay (MDCC-PBP phosphate biosensor, Ppx1)
Assay type: biochemical
Settings: for inhibition of SAMHD1 GTP-activated TTP hydrolysis / activation of SAMHD1 TTP hydrolysis: 0.3 mM TTP; for inhibition of SAMHD1 GTP-activated TTP hydrolysis: 0.1 mM GTP; for inhibition of SAMHD1 GTP-activated TTP hydrolysis / hydrolysis by SAMHD1 (substrate): 0.3 mM analogue triphosphate; for activation of SAMHD1 TTP hydrolysis: 0.1 mM analogue triphosphate as activator; for hydrolysis by SAMHD1 (substrate): without and with 0.1 mM GTP
Description: SAMHD1 hydrolysis, activation and inhibition by nucleotide analogues was quantified using a continuous coupled assay employing the fluorescent phosphate biosensor MDCC-PBP to measure phosphate release from combined SAMHD1 triphosphohydrolase and S. cerevisiae Ppx1 exopolyphosphatase activity, described previously. SAMHD1 and Ppx1 were expressed as strep-tagged fusion proteins and purified as described previously. Didanosine triphosphate (ddI-TP) and dideoxy ATP (ddATP) were from Trilink Biotechnologies, Stavudine triphosphate (d4T-TP) was from Jena biosciences and Chemcyte. Abacavir triphosphate and Carbovir triphosphate were chemically synthesised in house from abacavir and carbovir as described above. Experiments were performed in 20 μL reaction volumes in 384-well low-protein-binding microplates (Corning, USA). In typical experiments, solutions containing SAMHD1, Ppx1, MDCC-PBP and activator (GTP, ddI-TP or d4T-TP), or activator plus inhibitor, were incubated for 5 min in assay buffer (20 mM Tris pH 8.0, 150 mM NaCl, 5 mM MgCl2 and 2 mM TCEP) at 25 °C before the reaction was initiated by the addition of substrate (TTP, ddI-TP or d4T-TP). The final concentrations were 100 nM SAMHD1(115–626), 10 nM Ppx1, 2.5 μM BSA, 40 μM MDCC-PBP (80 μM in ABC-TP and CBV-TP assays). Activator, substrate and inhibitor were added at concentrations described below. The fluorescence intensity increase resulting from the phosphate-product binding to MDCC-PBP was recorded at 430 nm excitation and 465 nm emission over 10–30 min in a Clariostar multiwell plate reader (BMG). Steady-state rates were obtained from the fluorescence time courses by fitting a linear function with maximal slope using the Mars software (BMG). Apparent dissociation constant of ddI-TP binding (KS), catalytic constant (kcat), maximal rate (kmax) and the ddI-TP concentration at half maximal activation (Ka) were determined by nonlinear least squares fitting using a Hill-function in the software package Grafit 7.0.3 (Erithacus software, UK). All measurements were performed at least in triplicate and data are represented as mean ± SEM.

[1] = 1 mM TTP, varying ddI-TP, lower estimate
[2] = Hill equation fit, 0.2 mM GTP, mean ± SEM

T1 sequence (Q9Y3Z3 115-626): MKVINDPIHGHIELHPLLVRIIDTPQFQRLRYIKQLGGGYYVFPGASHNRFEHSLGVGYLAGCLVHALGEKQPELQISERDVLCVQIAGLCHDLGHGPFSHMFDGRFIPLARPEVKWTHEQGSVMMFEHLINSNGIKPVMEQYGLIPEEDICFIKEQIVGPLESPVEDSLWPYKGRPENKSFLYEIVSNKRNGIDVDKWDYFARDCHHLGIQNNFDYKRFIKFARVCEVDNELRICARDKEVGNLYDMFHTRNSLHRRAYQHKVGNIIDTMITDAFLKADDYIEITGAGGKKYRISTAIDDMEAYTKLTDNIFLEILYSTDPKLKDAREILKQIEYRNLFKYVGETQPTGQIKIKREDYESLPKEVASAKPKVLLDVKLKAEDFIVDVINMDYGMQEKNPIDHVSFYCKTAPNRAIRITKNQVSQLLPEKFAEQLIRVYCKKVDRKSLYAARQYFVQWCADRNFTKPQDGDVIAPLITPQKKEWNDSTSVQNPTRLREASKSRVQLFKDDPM

Row | SMILES | inhibition of SAMHD1 GTP-activated TTP hydrolysis | activation of SAMHD1 TTP hydrolysis | hydrolysis by SAMHD1 (substrate) | increase of ddI-TP hydrolysis in the presence of activating GTP (0.3 mM ddI-TP, 0.1 mM GTP vs no GTP) | Ka, ddI-TP concentration at half maximal activation of TTP hydrolysis [1] | maximal rate kmax of TTP hydrolysis activated by ddI-TP [1] | apparent binding constant KS of ddI-TP hydrolysis (Hill equation fit, 0.2 mM GTP (saturating activator), mean ± SEM) | Hill coefficient n of ddI-TP hydrolysis [2] | catalytic constant kcat of ddI-TP hydrolysis [2] | ddI-TP hydrolysis rate relative to TTP hydrolysis rate (fold slower) (in the presence of 0.1 mM GTP)
1 | Nc1nc(NC2CC2)c2ncn([C@H]3C=C[C@@H](COP(=O)(O)OP(=O)(O)OP(=O)(O)O)C3)c2n1 [ABC-TP, abacavir-5′-triphosphate] | neither ABC-TP nor CBV-TP displayed any activation or inhibition of SAMHD1 | neither ABC-TP nor CBV-TP displayed any activation or inhibition of SAMHD1 | not hydrolysed by SAMHD1 | – | – | – | – | – | – | –
2 | Nc1nc(=O)c2ncn([C@H]3C=C[C@@H](COP(=O)(O)OP(=O)(O)OP(=O)(O)O)C3)c2[nH]1 [CBV-TP, Carbovir 5′-triphosphate] | neither ABC-TP nor CBV-TP displayed any activation or inhibition of SAMHD1 | neither ABC-TP nor CBV-TP displayed any activation or inhibition of SAMHD1 | not hydrolysed by SAMHD1 | – | – | – | – | – | – | –
3 | Cc1cn([C@H]2C=C[C@@H](COP(=O)(O)OP(=O)(O)OP(=O)(O)O)O2)c(=O)[nH]c1=O [d4T-TP, stavudine triphosphate] | not a SAMHD1 inhibitor or activator | not a SAMHD1 inhibitor or activator | little or no hydrolytic activity | – | – | – | – | – | – | –
4 | Nc1ncnc2c1ncn2[C@H]1CC[C@@H](CO[P@@](=O)(O)O[P@](=O)(O)OP(=O)(O)O)O1 [ddATP, dideoxy ATP] | no measurable activation or inhibition | no measurable activation or inhibition | no hydrolysis by SAMHD1 | – | – | – | – | – | – | –
5 | O=c1[nH]cnc2c1ncn2[C@H]1CC[C@@H](COP(=O)(O)OP(=O)(O)OP(=O)(O)O)O1 [ddI-TP, didanosine triphosphate] | no significant inhibitory effects | activates SAMHD1 triphosphohydrolase activity, but to a much lesser degree than the natural activator, GTP | hydrolysed by SAMHD1 even in the absence of GTP | three-fold | > 300 µM | > 0.1 s⁻¹ | 226 ± 12 µM | 1.7 ± 0.1 | 0.24 ± 0.04 s⁻¹ | around six-fold

Source: publication PMC5318888, “SAMHD1 enhances nucleoside-analogue efficacy against HIV-1 in myeloid cells” (Scientific Reports, 2017)
